In PubChem BioAssay AID2060905 (Molecular Pharmacology Branch, DTP, NCI, 2025):

Test system: 282377-053-R-J1-PDC complex spheroid viability
Assay: Anticancer human tumor 282377-053-R-J1-PDC patient-derived colon adenocarcinoma cell line growth inhibition [RAS]
Details: for IC50: curve of first compound; for viability, T/C: stronger effect = lower value
Procedure, shortened: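 Multi-cell-type spheroids: tumor cells plus HUVEC endothelial cells and mesenchymal stem cells. RAS-pathway inhibitors were combined with targeted agents, each dosed in half-log steps down from clinical Cmax, or from 10 microM when Cmax was unknown.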

[1] = second compound 0.000949 µM, first compound 0.0316 µM
[2] = second compound 0.000949 µM, first compound 0.1 µM
[3] = second compound 0.000949 µM, first compound 0.316 µM
[4] = second compound 0.000949 µM, first compound 1 µM
[5] = second compound 0.000949 µM, first compound 3.16 µM
[6] = second compound 0.000949 µM, first compound 10 µM
[7] = second compound 0.003 µM, first compound 0.0316 µM
[8] = second compound 0.003 µM, first compound 0.1 µM
[9] = second compound 0.003 µM, first compound 0.316 µM
[10] = second compound 0.003 µM, first compound 1 µM
[11] = second compound 0.003 µM, first compound 3.16 µM
[12] = second compound 0.003 µM, first compound 10 µM
[13] = second compound 0.00949 µM, first compound 0.0316 µM
[14] = second compound 0.00949 µM, first compound 0.1 µM
[15] = second compound 0.00949 µM, first compound 0.316 µM
[16] = second compound 0.00949 µM, first compound 1 µM
[17] = second compound 0.00949 µM, first compound 3.16 µM
[18] = second compound 0.00949 µM, first compound 10 µM
[19] = second compound 0.03 µM, first compound 0.0316 µM
[20] = second compound 0.03 µM, first compound 0.1 µM
[21] = second compound 0.03 µM, first compound 0.316 µM
[22] = second compound 0.03 µM, first compound 1 µM
[23] = second compound 0.03 µM, first compound 3.16 µM
[24] = second compound 0.03 µM, first compound 10 µM
[25] = second compound 0.0949 µM, first compound 0.0316 µM
[26] = second compound 0.0949 µM, first compound 0.1 µM
[27] = second compound 0.0949 µM, first compound 0.316 µM
[28] = second compound 0.0949 µM, first compound 1 µM
[29] = second compound 0.0949 µM, first compound 3.16 µM
[30] = second compound 0.0949 µM, first compound 10 µM
[31] = second compound 0.3 µM, first compound 0.0316 µM
[32] = second compound 0.3 µM, first compound 0.1 µM
[33] = second compound 0.3 µM, first compound 0.316 µM
[34] = second compound 0.3 µM, first compound 1 µM
[35] = second compound 0.3 µM, first compound 3.16 µM
[36] = second compound 0.3 µM, first compound 10 µM
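Further: spheroids exposed to agents for seven days before readout.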
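Wherever viability, T/C is given: luminescence viability as percent of DMSO vehicle control wells.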

Q: For CC(=O)OC12COC1CC(O)C1(C)C(=O)C(O)C3=C(C)C(OC(=O)C(O)C(NC(=O)OC(C)(C)C)c4ccccc4)CC(O)(C(OC(=O)c4ccccc4)C21)C3(C)C (centres undefined) + CCn1c(-c2cc(N3CCN(C)CC3)cnc2C(C)OC)c2c3cc(ccc31)-c1csc(n1)CC(NC(=O)C1CC1C)C(=O)N1CCCC(N1)C(=O)OCC(C)(C)C2, which IC50 (second compound 0.000949 µM) is on record?
A: < 31.6 nM

Q: And the IC50 (second compound 0.003 µM)?
A: < 31.6 nM

Q: And the IC50 (second compound 0.00949 µM)?
A: < 31.6 nM

Q: And the IC50 (second compound 0.03 µM)?
A: < 31.6 nM

Q: What about the IC50 (second compound 0.0949 µM) of the same compound?
A: < 31.6 nM

Q: What about the IC50 (second compound 0.3 µM) of the same compound?
A: < 31.6 nM

Q: What about the viability, T/C [1] of the same compound?
A: 41.2%

Q: What about the viability, T/C [2] of the same compound?
A: 48.6%

Q: What about the viability, T/C [3] of the same compound?
A: 44.2%

Q: And the viability, T/C [4]?
A: 52%

Q: And the viability, T/C [5]?
A: 61%

Q: What about the viability, T/C [6] of the same compound?
A: 97.3%

Q: What about the viability, T/C [7] of the same compound?
A: 50.1%

Q: What about the viability, T/C [8] of the same compound?
A: 38.4%

Q: And the viability, T/C [9]?
A: 45.5%

Q: What about the viability, T/C [10] of the same compound?
A: 55.2%

Q: What about the viability, T/C [11] of the same compound?
A: 52.2%

Q: And the viability, T/C [12]?
A: 83.2%

Q: And the viability, T/C [13]?
A: 50.1%

Q: What about the viability, T/C [14] of the same compound?
A: 42.6%

Q: What about the viability, T/C [15] of the same compound?
A: 52.5%

Q: And the viability, T/C [16]?
A: 38.7%

Q: And the viability, T/C [17]?
A: 72.2%

Q: What about the viability, T/C [18] of the same compound?
A: 91.9%

Q: And the viability, T/C [19]?
A: 36.1%

Q: What about the viability, T/C [20] of the same compound?
A: 46%

Q: What about the viability, T/C [21] of the same compound?
A: 41.9%

Q: What about the viability, T/C [22] of the same compound?
A: 58.2%

Q: What about the viability, T/C [23] of the same compound?
A: 60.5%

Q: What about the viability, T/C [24] of the same compound?
A: 96.2%

Q: And the viability, T/C [25]?
A: 42%

Q: And the viability, T/C [26]?
A: 49.4%

Q: And the viability, T/C [27]?
A: 46.3%

Q: What about the viability, T/C [28] of the same compound?
A: 40.2%

Q: What about the viability, T/C [29] of the same compound?
A: 77.5%

Q: What about the viability, T/C [30] of the same compound?
A: 77.6%

Q: What about the viability, T/C [31] of the same compound?
A: 43.1%

Q: What about the viability, T/C [32] of the same compound?
A: 54.1%

Q: And the viability, T/C [33]?
A: 47.9%

Q: And the viability, T/C [34]?
A: 56.3%

Q: And the viability, T/C [35]?
A: 79.6%

Q: And the viability, T/C [36]?
A: 100%

Q: CCC(CC)c1cc(NC2CCC(N)C2)n2nccc2n1 (centres undefined) + CCn1c(-c2cc(N3CCN(C)CC3)cnc2C(C)OC)c2c3cc(ccc31)-c1csc(n1)CC(NC(=O)C1CC1C)C(=O)N1CCCC(N1)C(=O)OCC(C)(C)C2 was tested. Which IC50 (second compound 0.000949 µM) did it give?
A: 1710 nM

Q: What about the IC50 (second compound 0.003 µM) of the same compound?
A: 1480 nM

Q: And the IC50 (second compound 0.00949 µM)?
A: 1720 nM

Q: What about the IC50 (second compound 0.03 µM) of the same compound?
A: 1530 nM

Q: And the IC50 (second compound 0.0949 µM)?
A: 1780 nM

Q: And the IC50 (second compound 0.3 µM)?
A: 1800 nM

Q: And the viability, T/C [1]?
A: 85.5%

Q: And the viability, T/C [2]?
A: 98.8%

Q: And the viability, T/C [3]?
A: 98.5%

Q: What about the viability, T/C [4] of the same compound?
A: 84.1%

Q: What about the viability, T/C [5] of the same compound?
A: 11.1%

Q: What about the viability, T/C [6] of the same compound?
A: 6.68%

Q: What about the viability, T/C [7] of the same compound?
A: 89.4%

Q: What about the viability, T/C [8] of the same compound?
A: 86.5%

Q: What about the viability, T/C [9] of the same compound?
A: 81.2%

Q: And the viability, T/C [10]?
A: 70.5%

Q: What about the viability, T/C [11] of the same compound?
A: 10.4%

Q: And the viability, T/C [12]?
A: 3.1%

Q: And the viability, T/C [13]?
A: 81.9%

Q: And the viability, T/C [14]?
A: 95.3%

Q: And the viability, T/C [15]?
A: 72%

Q: What about the viability, T/C [16] of the same compound?
A: 90.7%

Q: And the viability, T/C [17]?
A: 10.8%

Q: And the viability, T/C [18]?
A: 4.36%

Q: What about the viability, T/C [19] of the same compound?
A: 76%

Q: What about the viability, T/C [20] of the same compound?
A: 82%

Q: What about the viability, T/C [21] of the same compound?
A: 85.7%

Q: And the viability, T/C [22]?
A: 71.2%

Q: What about the viability, T/C [23] of the same compound?
A: 13.2%

Q: What about the viability, T/C [24] of the same compound?
A: 7.45%

Q: What about the viability, T/C [25] of the same compound?
A: 95.7%

Q: And the viability, T/C [26]?
A: 87.2%

Q: And the viability, T/C [27]?
A: 76.1%

Q: What about the viability, T/C [28] of the same compound?
A: 88.6%

Q: What about the viability, T/C [29] of the same compound?
A: 13%

Q: What about the viability, T/C [30] of the same compound?
A: 2.75%

Q: What about the viability, T/C [31] of the same compound?
A: 94.7%

Q: What about the viability, T/C [32] of the same compound?
A: 78%

Q: What about the viability, T/C [33] of the same compound?
A: 86.1%

Q: And the viability, T/C [34]?
A: 94.9%

Q: What about the viability, T/C [35] of the same compound?
A: 13.4%

Q: And the viability, T/C [36]?
A: 3.35%
